Among the data in patent publication US20090085008A1, “Cellulose compound composition and cellulose compound film” (FUJIFILM Corporation, priority 2005, published 2009) are Solubility values, retold here.

The nature of the data set: Solubility in mixture solvent methylene chloride:methanol = 87:13. The following applies: Methylene chloride:Methanol = 87:13 (mass ratio). In kind it is physicochemical.

Procedure: A test was conducted to evaluate the solubility of the compound represented by formula (1) or (2), which can be used in the present invention, in a halogen-containing mixture solution.

On to `COc1cc(OC)c(C(=O)Oc2ccc(C(=O)Oc3ccc(-c4ccc(OC(=O)c5ccc(OC(=O)c6cc(OC)c(OC)cc6OC)cc5)cc4)cc3)cc2)cc1OC` [Analogous compound], for which the Solubility was 1%.
